This passage reports DC50 results from US20240016942A1, “STAT DEGRADERS AND USES THEREOF” (Kymera Therapeutics, Inc., priority 2020, published 2024).

One assay deals with T1, STAT3 (Homo sapiens, UniProt P40763).
T1 construct: expressed in transfected cells; host or cells: A549
T1 sequence (P40763 whole entry): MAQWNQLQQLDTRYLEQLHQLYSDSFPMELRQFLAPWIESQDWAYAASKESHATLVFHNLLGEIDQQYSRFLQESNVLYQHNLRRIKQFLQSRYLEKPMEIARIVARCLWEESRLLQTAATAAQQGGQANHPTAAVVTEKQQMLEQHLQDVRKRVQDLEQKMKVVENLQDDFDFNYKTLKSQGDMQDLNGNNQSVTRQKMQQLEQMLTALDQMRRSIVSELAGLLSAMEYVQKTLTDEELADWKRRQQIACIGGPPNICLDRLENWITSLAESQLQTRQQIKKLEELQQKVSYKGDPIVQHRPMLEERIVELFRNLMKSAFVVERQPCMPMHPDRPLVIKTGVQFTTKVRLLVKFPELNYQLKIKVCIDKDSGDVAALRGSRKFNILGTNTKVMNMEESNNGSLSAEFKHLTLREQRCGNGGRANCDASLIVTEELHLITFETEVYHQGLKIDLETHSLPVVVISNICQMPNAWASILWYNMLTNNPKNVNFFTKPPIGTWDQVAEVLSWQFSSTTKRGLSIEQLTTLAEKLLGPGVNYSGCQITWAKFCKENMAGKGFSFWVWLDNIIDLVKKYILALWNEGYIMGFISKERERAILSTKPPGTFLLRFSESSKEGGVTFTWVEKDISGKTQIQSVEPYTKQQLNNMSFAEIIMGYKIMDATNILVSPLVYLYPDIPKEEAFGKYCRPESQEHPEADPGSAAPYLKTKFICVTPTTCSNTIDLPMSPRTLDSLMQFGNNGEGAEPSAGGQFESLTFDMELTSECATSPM
The experiment in a line: STAT3 HiBiT degradation assay (Nano-Glo HiBiT lytic detection) in transfected A549 cells. It counts as cell-based. The settings on record: 24 h compound incubation, read-out: STAT3 HiBIT A549 degradation 24 h: Average external-Abs DC50. In a few lines: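 Transfected A549 cells (~2000/well) treated 24 h at 37° C with compound in 3-fold, 10-point dilution series. HiBiT-tagged STAT3 remaining measured by Nano-Glo HiBiT lytic luminescence, normalised to negative and positive controls; DC50 from four-parameter curve fit.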
Take `CC(=O)N1CC[C@H]2CC[C@@H](C(=O)N[C@@H](CCC(N)=O)COc3cccc(CCCC(=O)N[C@H](C(=O)N4C[C@H](O)C[C@H]4C(=O)NC4(c5ccc(-c6scnc6C)cc5)CC4)C(C)(C)C)c3Cl)N2C(=O)[C@@H](NC(=O)c2cc3cc(C(=O)P(=O)(O)O)ccc3[nH]2)C1` [I-72]: the half-maximal degradation concentration (DC50) is 10 to 100 nM.

Consider `Cn1c(=O)n(C2CCC(=O)NC2=O)c2ccc(CC[C@H]3CC[C@H](C(=O)N4CC[C@H]5CC[C@@H](C(=O)N[C@@H](CCC(N)=O)C(=O)NCc6ccc(S(C)(=O)=O)cc6)N5C(=O)[C@@H](NC(=O)c5cc6cc(C(=O)P(=O)(O)O)ccc6[nH]5)C4)CC3)cc21` (stereo partly shown) [I-73], for which the DC50 fell in the range of 10 to 100 nM.

Consider `Cn1c(=O)n(C2CCC(=O)NC2=O)c2ccc(C[C@H]3CC[C@H](CC(=O)N4CC[C@H]5CC[C@@H](C(=O)N[C@@H](CCC(N)=O)C(=O)NCc6ccc(S(C)(=O)=O)cc6)N5C(=O)[C@@H](NC(=O)c5cc6cc(C(=O)P(=O)(O)O)ccc6[nH]5)C4)CC3)cc21` (stereo partly shown) [I-74], for which the DC50 fell in the range of 10 to 100 nM.

As for `Cn1c(=O)n(C2CCC(=O)NC2=O)c2ccc(C[C@H]3CC[C@@H](CC(=O)N4CC[C@H]5CC[C@@H](C(=O)N[C@@H](CCC(N)=O)C(=O)NCc6ccc(S(C)(=O)=O)cc6)N5C(=O)[C@@H](NC(=O)c5cc6cc(C(=O)O)ccc6[nH]5)C4)CC3)cc21` (stereo partly drawn) [I-75, 2-[[(5S,8S,10aR)-8-[[(1S)-3-carbamoyl-1-[[(4-methanesulfonylphenyl)methyl]carbamoyl]propyl]carbamoyl]-6-oxo-3-[2-[(1s,4s)-4-[[1-(2,6-dioxopiperidin-3-yl)-3-methyl-2-oxo-1,3-benzodiazol-5-yl]methyl]cyclohexyl]acetyl]-octahydropyrrolo[1,2-a][1,5]diazocin-5-yl]carbamoyl]-1H-indole-5-carboxylic acid], the DC50 is above 1000 nM.

In the case of `Cn1c(=O)n(C2CCC(=O)NC2=O)c2ccc(CCCCCCC(=O)N3CC[C@H]4CC[C@@H](C(=O)N[C@@H](CCC(N)=O)C(=O)NCc5ccc(S(C)(=O)=O)cc5)N4C(=O)[C@@H](NC(=O)c4cc5cc(C(=O)P(=O)(O)O)ccc5[nH]4)C3)cc21` (stereo partly shown) [I-76], the DC50 lay in the range of 10 to 100 nM.

In the case of `CC(=O)N1CC[C@H]2CC[C@@H](C(=O)N[C@@H](CCC(N)=O)COc3cc(F)cc(CCCC(=O)N[C@H](C(=O)N4C[C@H](O)C[C@H]4C(=O)N[C@@H](C)c4ccc(-c5scnc5C)cc4)C(C)(C)C)c3Cl)N2C(=O)[C@@H](NC(=O)c2cc3cc(C(=O)P(=O)(O)O)ccc3[nH]2)C1` [I-77], the DC50 was below 10 nM.

`CC(=O)N1CC[C@H]2CC[C@@H](C(=O)N[C@@H](CCC(N)=O)COc3cc(C)cc(CCCC(=O)N[C@H](C(=O)N4C[C@H](O)C[C@H]4C(=O)N[C@@H](C)c4ccc(-c5scnc5C)cc4)C(C)(C)C)c3F)N2C(=O)[C@@H](NC(=O)c2cc3cc(C(=O)P(=O)(O)O)ccc3[nH]2)C1` [I-78]: the DC50 was below 10 nM.

For the compound `CC(=O)N1CC[C@H]2CC[C@@H](C(=O)N[C@@H](CCC(N)=O)COc3cc(F)cc(CCCC(=O)N[C@H](C(=O)N4C[C@H](O)C[C@H]4C(=O)N[C@@H](C)c4ccc(-c5scnc5C)cc4)C(C)(C)C)c3F)N2C(=O)[C@@H](NC(=O)c2cc3cc(C(=O)P(=O)(O)O)ccc3[nH]2)C1` [I-79], the DC50 was below 10 nM.

On to `CC(=O)N1CC[C@H]2CC[C@@H](C(=O)N[C@@H](CCC(N)=O)COc3cc(C)cc(CCCC(=O)N[C@H](C(=O)N4C[C@H](O)C[C@H]4C(=O)N[C@@H](C)c4ccc(-c5scnc5C)cc4)C(C)(C)C)c3Cl)N2C(=O)[C@@H](NC(=O)c2cc3cc(C(=O)P(=O)(O)O)ccc3[nH]2)C1` [I-80], for which the DC50 was below 10 nM.

For `Cn1c(=O)n(C2CCC(=O)NC2=O)c2ccc(CCCCCCc3cc4c5c(c3)C[C@@H](C(=O)N[C@@H](CCC(N)=O)C(=O)NCc3ccc(S(C)(=O)=O)cc3)N5C(=O)[C@@H](NC(=O)c3cc5cc(C(=O)P(=O)(O)O)ccc5[nH]3)CC4)cc21` (stereo partly drawn) [I-81, (2-(((3S,6S)-6-(((S)-5-amino-1l-((4-(methylsulfonyl)benzyl)amino)-1,5-dioxopentan-2-yl)carbamoyl)-9-(6-(1-(2,6-dioxopiperidin-3-yl)-3-methyl-2-oxo-2,3-dihydro-1H-benzo[d]imidazol-5-yl)hexyl)-4-oxo-1,2,3,4,6,7-hexahydroazepino[3,2,1-hi]indol-3-yl)carbamoyl)-1H-indole-5-carbonyl)phosphonic acid], the DC50 fell in the range of 10 to 100 nM.

As to `COC(=O)N1CC[C@H]2CC[C@@H](C(=O)N[C@@H](CCC(N)=O)COc3cccc(CCCC(=O)N[C@H](C(=O)N4C[C@H](O)C[C@H]4C(=O)N[C@@H](C)c4ccc(-c5scnc5C)cc4)C(C)(C)C)c3Cl)N2C(=O)[C@@H](NC(=O)c2cc3cc(C(F)(F)P(=O)(O)O)ccc3[nH]2)C1` [I-84], the DC50 is above 1000 nM.

Regarding `COC(=O)N1CC[C@H]2CC[C@@H](C(=O)N[C@@H](CCC(N)=O)COc3cccc(CCCC(=O)N[C@H](C(=O)N4C[C@H](O)C[C@H]4C(=O)N[C@@H](C)c4ccc(-c5scnc5C)cc4)C(C)(C)C)c3Cl)N2C(=O)[C@@H](NC(=O)c2cc3cc(C(=O)P(=O)(O)O)ccc3[nH]2)C1` [I-87], the DC50 is above 1000 nM.

For `CC(C)c1ccc(CNC(=O)[C@H](CCC(=O)O)NC(=O)[C@@H]2CC[C@@H]3CCN(C(=O)[C@H]4CC[C@@H](CCc5ccc6c(c5)n(C)c(=O)n6C5CCC(=O)NC5=O)CC4)C[C@H](NC(=O)c4cc5cc(C(=O)P(=O)(O)O)ccc5[nH]4)C(=O)N32)cc1` (stereo partly drawn) [I-96, (4S)-4-[[(5S,8S,10aR)-6-oxo-5-[5-(phosphonocarbonyl)-1H-indole-2-amido]-3-[(1s,4s)-4-[2-[1-(2,6-dioxopiperidin-3-yl)-3-methyl-2-oxo-1,3-benzodiazol-5-yl]ethyl]cyclohexanecarbonyl]-octahydropyrrolo[1,2-a][1,5]diazocin-8-yl]formamido]-4-[[(4-isopropylphenyl)methyl]carbamoyl]butanoic acid], the DC50 was above 1000 nM.

As to `CC(C)c1ccc(CNC(=O)[C@H](CCC(N)=O)NC(=O)[C@@H]2CC[C@@H]3CCN(C(=O)[C@H]4CC[C@@H](CCc5ccc6c(c5)n(C)c(=O)n6C5CCC(=O)NC5=O)CC4)C[C@H](NC(=O)c4cc5cc(C(F)(F)P(=O)(O)O)ccc5s4)C(=O)N32)cc1` (stereo partly shown) [I-97], the DC50 was above 1000 nM.

Turning to `CNC(=O)N1CC[C@H]2CC[C@@H](C(=O)N[C@@H](CCC(N)=O)COc3cccc(CCCC(=O)N[C@H](C(=O)N4C[C@H](O)C[C@H]4C(=O)N[C@@H](C)c4ccc(-c5scnc5C)cc4)C(C)(C)C)c3Cl)N2C(=O)[C@@H](NC(=O)c2cc3cc(C(F)(F)P(=O)(O)O)ccc3s2)C1` [I-98], the 50% degradation concentration (DC50) is above 1000 nM.

Still in this assay, the particulars now being: read-out: STAT3 HiBIT A549 degradation 24 h: Average external-Abs DC50, 24 h compound incubation.
Turning to `CC(=O)N1CC[C@H]2CC[C@@H](C(=O)N[C@@H](CCC(N)=O)COc3cccc(CCCC(=O)N[C@H](C(=O)N4C[C@H](O)C[C@H]4C(=O)N[C@@H](C)c4ccc(-c5scnc5C)cc4)C(C)(C)C)c3Cl)N2C(=O)[C@@H](NC(=O)c2cc3cc(C(F)(F)P(=O)(O)O)ccc3s2)C1` [I-83], the DC50 is above 1000 nM.

`COC(=O)N1CC[C@H]2CC[C@@H](C(=O)N[C@@H](CCC(N)=O)COc3cccc(CCCC(=O)N[C@H](C(=O)N4C[C@H](O)C[C@H]4C(=O)N[C@@H](C)c4ccc(-c5scnc5C)cc4)C(C)(C)C)c3Cl)N2C(=O)[C@@H](NC(=O)c2cc3cc(C(=O)P(=O)(O)O)ccc3s2)C1` [I-86]: the DC50 is above 1000 nM.

For the compound `Cc1ncsc1-c1ccc([C@H](C)NC(=O)[C@@H]2C[C@@H](O)CN2C(=O)[C@@H](NC(=O)CCCc2cccc(OC[C@H](CCC(N)=O)NC(=O)[C@@H]3CC[C@@H]4CCCC[C@H](NC(=O)c5cc6cc(C(=O)P(=O)(O)O)ccc6s5)C(=O)N43)c2Cl)C(C)(C)C)cc1` [I-88], the DC50 is above 1000 nM.

As for `Cc1ncsc1-c1ccc([C@H](C)NC(=O)[C@@H]2C[C@@H](O)CN2C(=O)[C@@H](NC(=O)CCCc2cccc(OC[C@H](CCC(N)=O)NC(=O)[C@@H]3CC[C@@H]4CCCC[C@H](NC(=O)c5cc6cc(C(F)(F)P(=O)(O)O)ccc6s5)C(=O)N43)c2Cl)C(C)(C)C)cc1` [I-89], the DC50 was above 1000 nM.
